The values below come from publication PMC10578352, “Identification of a Protein Arginine Methyltransferase 7 (PRMT7)/Protein Arginine Methyltransferase 9 (PRMT9) Inhibitor” (Journal of Medicinal Chemistry, 2023).

One test deals with T1, GST-HsPRMT9 (Homo sapiens, UniProt Q6P2P2).
T1 construct: made in house; host or cells: E. coli
T1 sequence (Q6P2P2 1-845): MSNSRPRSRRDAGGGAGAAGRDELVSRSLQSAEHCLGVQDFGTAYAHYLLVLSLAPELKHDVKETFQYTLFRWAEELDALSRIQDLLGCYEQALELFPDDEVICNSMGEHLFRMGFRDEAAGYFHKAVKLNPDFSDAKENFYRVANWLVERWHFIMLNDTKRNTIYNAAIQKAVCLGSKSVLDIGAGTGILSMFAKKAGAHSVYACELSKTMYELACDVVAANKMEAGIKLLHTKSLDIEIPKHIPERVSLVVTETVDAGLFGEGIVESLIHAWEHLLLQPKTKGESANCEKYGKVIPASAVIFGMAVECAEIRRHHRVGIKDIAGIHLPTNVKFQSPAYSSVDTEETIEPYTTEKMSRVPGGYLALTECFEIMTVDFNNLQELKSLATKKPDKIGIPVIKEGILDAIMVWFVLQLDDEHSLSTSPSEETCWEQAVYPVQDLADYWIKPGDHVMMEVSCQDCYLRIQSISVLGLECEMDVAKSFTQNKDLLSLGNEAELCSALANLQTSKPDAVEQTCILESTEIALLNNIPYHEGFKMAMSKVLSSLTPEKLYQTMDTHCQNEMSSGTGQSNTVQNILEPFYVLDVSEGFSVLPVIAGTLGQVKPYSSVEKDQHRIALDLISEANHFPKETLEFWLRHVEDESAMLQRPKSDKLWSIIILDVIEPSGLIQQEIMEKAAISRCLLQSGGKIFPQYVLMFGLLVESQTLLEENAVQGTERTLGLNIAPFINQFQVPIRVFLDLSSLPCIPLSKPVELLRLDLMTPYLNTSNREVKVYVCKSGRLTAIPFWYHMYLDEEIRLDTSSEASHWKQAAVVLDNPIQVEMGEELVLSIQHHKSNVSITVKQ
As to the kind of experiment: Radioisotope-based assay (SDS-PAGE, fluorography, densitometry), HsPRMT9. Conditions: substrate GST-SF3B2 (401–550), 37 °C, read-out: % HsPRMT9 residual activity. The class given is biochemical. On the procedure:
(§1) Based on these outcomes, we resolved to explore the effect on the capability to inhibit PRMT9 enzymatic activity of further reduction of the distance between the pharmacophoric moieties. […] After the experiment was repeated with 100, 250, and 500 μM concentrations of each inhibitor, half inhibition was observed only at a concentration of roughly 250 μM (Figure 4d).
(§2) […]. The experiments were performed as reported in the Experimental procedures section. GST-HsPRMT9 (a) and GST-HsPRMT7 (b) were incubated with human GST-SF3B2 (401–550) peptide or recombinant HsH2B, respectively (1 μg of enzyme, 5 μg of substrate), 0.14 μM [^3H]SAM, and the indicated concentrations of tested compounds at the corresponding optimal reaction temperature (37 °C for HsPRMT9, 15 °C for HsPRMT7). C. elegans GST-tagged enzymes PRMT9 (c) and PRMT7 (d) were incubated with GST-CeSFTB-2 (99–248) fragment or recombinant HsH2B, respectively (1 μg of enzyme, 5 μg of substrate), 0.14 μM [^3H]SAM, and the indicated concentrations of tested compounds at the corresponding optimal reaction temperature (25 °C for CePRMT9, 15 °C for CePRMT7). After SDS-PAGE, the gels were treated as previously described[48] and densitometry analysis was done using ImageJ software, and data was plotted as normalized activity to the no inhibitor controls.
(§3) Human PRMT9, C. elegans PRMT9, human PRMT7, and C. elegans PRMT7 plasmids were sequenced, expressed in E. coli as GST-fusion proteins, and purified as previously described.[48] Substrates were also sequenced and purified as described [human GST-SF3B2 (401–550);[13]C. elegans SFTB-2;[48] human histone H2B (New England Biolabs, M2505S)]. Xenopus laevis histone H2B was expressed in E. coli and purified similarly to what was previously reported by Luger et al.[72]
(§4) Reactions consisting of approximately 1 μg of enzyme (human or C. elegans GST-tagged enzymes PRMT9 and PRMT7), reacted with approximately 5 μg of substrate [for human PRMT9, human GST-SF3B2 401–550 fragment; C. elegans PRMT9 with C. elegans GST-SFTB-2 (99–248) fragment, or recombinant human histone H2B from New England Biolabs (M2505S)], were incubated for the indicated time in reaction buffer {50 mM potassium HEPES buffer, 10 mM NaCl, 1 mM dithiothreitol (DTT), pH 8.0 with 0.7 μM S-adenosyl-L-[methyl-^3H]methionine (^3H-AdoMet, PerkinElmer Life Sciences, 82.7 Ci/mmol, 0.55 mCi/mL in 10 mM H2SO4/EtOH [9:1 (v/v)])} in a final reaction volume of 60 μL. Each reaction was incubated at the corresponding optimal reaction temperature (37 °C for human PRMT9, 25 °C for C. elegans PRMT9, and 15 °C for C. elegans and human PRMT7 enzymes. MTA was dissolved in water, and a wavelength scan was taken to determine the final concentration using the extinction coefficient. The final concentrations used are indicated in the figure legends. […]. EML734, EML736, and EML709 were also dissolved in DMSO, and further dilutions were made in DMSO for the working stocks. For controls, no inhibitor reactions were created by the addition of the respective solvent (water for MTA and DMSO for EPZ015666 and EML inhibitors).
(§5) After the reaction incubations with the various concentrations of inhibitors, the reactions were quenched by adding 0.2 volume of 5× SDS sample loading buffer, and subsequently, the reactions were run on a 12.6% polyacrylamide Tris gel. To collect the radioactive signal, the gels were then treated in the same way as previously described.[48]
(§6) After various exposures were collected to ensure linear detection, densitometry analysis was done using ImageJ software, and data were plotted as normalized activity to the no inhibitor controls.

The test system of the next test is CePRMT9. As to the kind of experiment: Radioisotope-based assay (SDS-PAGE, fluorography, densitometry), CePRMT9. It counts as biochemical, Caenorhabditis elegans. Conditions: substrate GST-CeSFTB-2 (99–248), 25 °C. The protocol: as §1, §2, §3, §4, §5, §6

As for `COC(=O)c1cc(O)c2cc(NC(=O)NCCCNC(=N)NC[C@H]3O[C@@H](n4cnc5c(N)ncnc54)[C@H](O)[C@@H]3O)ccc2c1` [1a], on GST-HsPRMT9, the remaining activity at 5 µM stood at 30.4%, the remaining activity at 25 µM was found to be 3.42%, the remaining activity at 50 µM was found to be 1.37% and the remaining activity at 100 µM worked out at 0.3%. The “% CePRMT9 residual activity” value with CePRMT9 (5 uM) is 106.32%. Also, the “% CePRMT9 residual activity” value with CePRMT9 (25 uM) is 67.30%. Besides, the “% CePRMT9 residual activity” value in the test on CePRMT9 (50 uM) is listed as 31.52%. The “% CePRMT9 residual activity” value with CePRMT9 (100 uM) stood at 19.47%.
Consider `COC(=O)c1cc(O)c2cc(NC(=O)NCCCCNC(=N)NC[C@H]3O[C@@H](n4cnc5c(N)ncnc54)[C@H](O)[C@@H]3O)ccc2c1` [1b], for which the remaining activity at 5 µM at GST-HsPRMT9 amounted to 46%. In addition, the remaining activity at 25 µM on GST-HsPRMT9 is 13.8%. At GST-HsPRMT9, the remaining activity at 50 µM turned out to be 6.15%. Further, the remaining activity at 100 µM at GST-HsPRMT9 is 1.64%. Besides, the “% CePRMT9 residual activity” value in the test on CePRMT9 (5 uM) was 114.11%; in the test with CePRMT9 (25 uM), 95.80%; with CePRMT9 (50 uM) it was 52.55%; in the test with CePRMT9 (100 uM), 39.17%.
Take `COC(=O)c1cc(O)c2cc(NC(=O)NCCCCCNC(=N)NC[C@H]3O[C@@H](n4cnc5c(N)ncnc54)[C@H](O)[C@@H]3O)ccc2c1` [1c]: on GST-HsPRMT9, the remaining activity at 5 µM stood at 32%, the remaining activity at 25 µM was 6.5%, the remaining activity at 50 µM was 0.52% and the remaining activity at 100 µM was 0.34%. Besides, in the test with CePRMT9 (5 uM), the “% CePRMT9 residual activity” value is on record as 110.89%. The “% CePRMT9 residual activity” value with CePRMT9 (25 uM) was 81.62%. Further, in the test on CePRMT9 (50 uM), the “% CePRMT9 residual activity” value worked out at 50.08%. Also, the “% CePRMT9 residual activity” value in the test on CePRMT9 (100 uM) worked out at 12.31%.
